These results are taken from patent US20240216357A1 (SICHUAN HUIYU PHARMACEUTICAL CO., LTD., priority 2021, published 2024).

Structures can show the parent of a compound that is named as a salt. Where two headings read alike, the source gives them in different places.

Assay [1] concerns the target LSD1 (Homo sapiens (Human), UniProt O60341). The assay can be described thus: LSD1 enzyme activity detection (HTRF). The assay is classed as biochemical. As to conditions: read-out: Inhibition of enzymatic activity of LSD1 IC50.
Assay [2] concerns NCI-H1417 cells. The assay can be described thus: In vitro cell proliferation detection (CellTiter-Glo, 7 days). The assay is classed as cell-based. As to conditions: Homo sapiens. (ATP-based viability assays read luminescence as a measure of living cells.)
Setting [3] is: 168 h, NCI-H1417 cells, 7 days, CellTiter-Glo, read-out: NCI-H1417 proliferation inhibition IC50.
[4] abbreviates: NCI-H1417, 168 h, read-out: NCI-H1417 proliferation inhibition IC50(nM).

With `N#Cc1ccc(-c2nc(N3C4CCC3CC(N)C4)n3ccnc3c2-c2cc3nonc3cc2F)cc1F` (stereo not shown) [Example 186, 4-(5-(3-amino-8-azabicyclo[3.2.1]octane-8-yl)-8-(6-fluorobenzo[c] [1,2,5]oxadiazole-5-yl)imidazolo [1,2-c]pyrimidin-7-yl)-2-fluorobenzonitrile], the IC50 is 17.3 nM in assay [1] (HTRF, H3K4me1 substrate) and 18 nM in assay [2] (setting [3]).
The corresponding values for `COc1ccc(-c2cnc(N3CC(N)C3)c(C#N)c2-c2ccc(C#N)c(F)c2)cc1O` [Example 82, 2-(3-aminoazetidin-1-yl)-4-(4-cyano-3-fluorophenyl)-5-(3-hydroxy-4-methoxyphenyl) nicotinonitrile] are 12.9 ± 0.2 nM and 72.4 nM.
Turning to `Cc1noc2cc(-c3c(-c4ccc(C#N)c(F)c4)nc(N4CCC(C)(N)CC4)n4ccnc34)c(F)cc12` [Example 149, 4-(5-(4-amino-4-methylpiperidin-1-yl)-8-(5-fluoro-3-methylbenzo [d]isoxazol-6-yl)imidazolo[1,2-c]pyrimidin-7-yl)-2-fluorobenzonitrile], the IC50 in assay [1] (HTRF, H3K4me1 substrate) amounted to 33.2 nM; in assay [2] (setting [3]), 12.8 nM.
With `CCOc1cc(N2CCC(N)CC2)nc(-c2ccc(C#N)c(F)c2)c1-c1ccc(OC)c(O)c1` [Example 103, 4-(6-(4-aminopiperidin-1-yl)-4-ethoxy-3-(3-hydroxy-4-methoxyphenyl)pyridin-2-yl)-2-fluorobe nzonitrile], the results for the IC50 in assay [1] and in assay [2] (setting [4]) were 0.6 ± 0.2 nM and 6.27 nM, respectively.
Regarding `Cc1noc2cc(-c3c(-c4ccc(C#N)c(F)c4)nc(N4CCC(N)CC4)c4[nH]ncc34)c(F)cc12` [Example 288, 4-(7-(4-aminopiperidin-1-yl)-4-(5-fluoro-3-methylbenzo[d]isoxazol-6-yl)-1H-pyrazole[3,4-c]pyridin-5-yl)-2-fluorobenzonitrile hydrochloride], the IC50 worked out at 0.591 nM in assay [1] (HTRF, H3K4me1 substrate) and 6.33 nM in assay [2] (setting [3]).
The like results for `CC(C)(O)COc1ccc(-c2c(O)cc(N3CCC(N)CC3)nc2-c2ccc(C#N)c(F)c2)cc1F` [Example 38, 4-(6-(4-aminopiperine-1-yl)-3-(3-fluoro-4-(2-hydroxy-2-methylpropoxy)phenyl)-4-hydroxypyridin-2-yl)-2-fluorobenzonitrile hydrochloride] were, in that order, 57.6 nM and 179 nM.
The like results for `COc1ccc(-c2c(-c3ccc(C#N)c(F)c3)nc(N3CC4CC(C3)C4N)n3ccnc23)cc1F` (stereo not shown) [Example 167, 4-(5-(6-amino-3-azabicyclo [3.1.1]heptane-3-yl)-8-(3-fluoro-4-methoxyphenyl)imidazolo[1,2-c]pyrimidin-7-yl)-2-fluorobenzonitrile hydrochloride] were, in that order, 78.4 nM and 155 nM.
The corresponding values for `COc1ccc(-c2c(OC(F)F)cc(N3CCC(N)CC3)nc2-c2ccc(C#N)c(F)c2)cc1O` [Example 106, 4-(6-(4-aminopiperidin-1-yl)-4-(difluoromethoxy)-3-(3-hydroxy-4-methoxyphenyl)pyridin-2-yl)-2-fluorobenzonitrile] are 1.2 ± 0.7 nM and 0.594 nM.
Regarding `Cc1ccc(-c2c(-c3ccc(C#N)cc3)cc3c(N4CCC[C@@H](N)C4)cccn23)cc1` [Example 10, (R)-4-(8-(3-aminopiperidin-1-yl)-3-(p-tolyl)indolizin-2-yl)benzonitrile hydrochloride], the IC50 came to 79.1 ± 18.9 nM in assay [1] and 371 nM in assay [2] (setting [4]).
Regarding `N#Cc1ccc(-c2nc(N3C4CCC3CC(N)C4)n3ccnc3c2-c2ccc(F)c(O)c2)cc1F` (stereo not shown) [Example 157, 4-(5-(3-amino-8-azabicyclo [3.2.1]octane-8-yl)-8-(4-fluoro-3-hydroxyphenyl)imidazolo [1,2-c]pyrimidin-7-yl)-2-fluorobenzonitrile hydrochloride], the IC50 in assay [1] (HTRF, H3K4me1 substrate) is 0.3 ± 0.3 nM; in assay [2] (setting [3]), 2.05 nM.
On to `O=C(NC1CCOCC1)c1cc(CN[C@@H]2C[C@H]2c2ccc(F)cc2)nc(-c2ccccc2)n1` [Example 237], for which the IC50 amounted to 423 ± 23 nM in assay [1] (HTRF, H3K4me1 substrate) and 28.3 nM in assay [2] (setting [3]).
The corresponding values for `O=C(c1cc(CN[C@@H]2C[C@H]2c2ccc(F)cc2)nc(-c2ccc(-n3ccnn3)cc2)n1)N1CCC(F)(F)CC1` [Example 248, (2-(4-(1H-1,2,3-triazol-1-yl)phenyl)-6-((((1R,2S)-2-(4-fluorophenyl)cyclo-propyl)amino)methyl)pyrimidin-4-yl)(4,4-difluoropiperidin-1-yl) methanone] are 140 nM and 2.98 nM.
Regarding `Cc1ccc(-c2c(O)cc(N3CCC(N)CC3)nc2-c2ccc(C#N)c(F)c2)cc1O` [Example 60], the IC50 in assay [1] (HTRF, H3K4me1 substrate) was found to be 0.4 ± 0.2 nM; in assay [2] (setting [3]), 0.49 nM.
The corresponding values for `COc1ccc(-c2c(-c3ccc(C#N)c(F)c3)nc(N3CCC(C)(N)CC3)n3ccnc23)cc1O` [Example 143, 4-(5-(4-amino-4-methylpiperidin-1-yl)-8-(3-hydroxy-4-methoxyphenyl)imidazolo[1,2-c]pyrimidin-7-yl)-2-fluorobenzonitrile] are 5.5 ± 2.9 nM and 4.82 nM.
The like results for `O=C(c1cc(CN[C@@H]2C[C@H]2c2ccc(F)cc2)nc(-c2ccc(N3CCOCC3)cc2)n1)N1CCOCC1` [Example 245, (6-((1R,2S)-2-(4-fluorophenyl)cyclopropyl)amino)methyl)-2-(4-morpholinophenyl) pyrimidin-4-yl) (morpholino)methanone hydrochloride] were, in that order, 39.1 nM and 1.98 nM.
The corresponding values for `CNC1CCCN(c2nc(-c3ccc(C#N)c(F)c3)c(-c3ccc(OC)c(F)c3)c3nccn23)C1` (stereo not shown) [Example 119, 2-fluoro-4-(8-(3-fluoro-4-methoxyphenyl)-5-(3-(methylamino)piperidin-1-yl)imidazolo[1,2-c]pyrimidin-7-yl) benzonitrile] are 9.54 ± 1.2 nM and 39.1 nM.
Consider `N#Cc1ccc(-c2nc(N3CCC(N)CC3)n3ccnc3c2-c2ccc(C(F)(F)F)c(O)c2)cc1F` [Example 154, 4-(5-(4-aminopiperidin-1-yl)-8-(3-hydroxy-4-(trifluoromethyl)phenyl)imidazolo [1,2-c]pyrimidin-7-yl)-2-fluorobenzonitrile carboxylate], for which the IC50 in assay [1] (HTRF, H3K4me1 substrate) is 0.5 ± 0.1 nM; in assay [2] (setting [3]), 0.959 nM.
The like results for `N#Cc1ccc(-c2nc(N3CCC(N)CC3)cc(O)c2-c2ccc(N3CCOCC3)cc2)cc1F` [Example 21, 4-(6-(4-aminopiperidin-1-yl)-4-hydroxy-3-(4-morpholinophenyl)pyridin-2-yl)-2-fluorobenzonitrile hydrochloride] were, in that order, 10.5 nM and 38.7 nM.
As for `COc1ccc(-c2c(-c3ccc(C#N)c(F)c3)nc(N3CC4CCC3CC4N)n3ccnc23)cc1O` (stereo not shown) [Example 166, 4-(5-(5-amino-2-azabicyclo [2.2.2]octane-2-yl)-8-(3-hydroxy-4-methoxyphenyl)imidazolo[1,2-c]pyrimidin-7-yl)-2-fluorobenzonitrile hydrochloride], the IC50 in assay [1] (HTRF, H3K4me1 substrate) amounted to 1 ± 0.5 nM; in assay [2] (setting [3]), 2.39 nM.
The like results for `COc1ccc(-c2c(-c3ccc(C#N)c(F)c3F)nc(N3C4CCC3CC(N)C4)n3ccnc23)cc1F` (stereo not shown) [Example 183, 4-(5-(3-amino-8-azabicyclo[3.2.1]octane-8-yl)-8-(3-fluoro-4-methoxyphenyl)imidazolo[1,2-c]pyrimidin-7-yl)-2,3-difluorobe nzonitrile hydrochloride] were, in that order, 3.6 ± 0.6 nM and 6.28 nM.
